Measurements as given in patent US10519152B2, “Compounds and their use in treating cancer” (AstraZeneca AB, priority 2017, dated 2019).

Target: T1, Estrogen Receptor (ERα) in MCF-7 human ductal carcinoma breast cell line (Homo sapiens, UniProt P03372)
T1 construct: endogenous in cells; host or cells: MCF-7
T1 sequence (P03372 1-595): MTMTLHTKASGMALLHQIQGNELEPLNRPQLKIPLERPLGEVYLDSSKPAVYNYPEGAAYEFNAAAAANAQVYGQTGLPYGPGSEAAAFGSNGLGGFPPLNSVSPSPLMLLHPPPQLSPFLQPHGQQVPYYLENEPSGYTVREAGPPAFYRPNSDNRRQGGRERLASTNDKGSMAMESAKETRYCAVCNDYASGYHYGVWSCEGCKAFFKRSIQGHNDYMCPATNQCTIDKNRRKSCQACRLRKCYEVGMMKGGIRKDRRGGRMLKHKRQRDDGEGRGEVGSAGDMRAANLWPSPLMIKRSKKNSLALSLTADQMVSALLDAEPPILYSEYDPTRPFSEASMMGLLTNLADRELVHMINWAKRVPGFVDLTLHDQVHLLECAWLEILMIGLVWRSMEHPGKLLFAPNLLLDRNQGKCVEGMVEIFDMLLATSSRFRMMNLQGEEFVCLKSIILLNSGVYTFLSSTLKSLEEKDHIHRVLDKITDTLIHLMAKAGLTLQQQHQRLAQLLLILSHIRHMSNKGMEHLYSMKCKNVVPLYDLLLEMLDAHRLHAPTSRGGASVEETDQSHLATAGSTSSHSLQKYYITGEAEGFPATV
Assay: MCF-7 ER degradation assay (cell based immuno-fluorescence)
Conditions: MCF-7 cells; for ER degradation ≥ 90% at 0.3 μM: ER degradation by fulvestrant at 0.3 μM is defined as 100%; for DC50: 18-22 hours incubation, 50% reduction of ERα expression, single experiment or average of two or more, read-out: MCF-7 ER degradation IC50
Summary of the method: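 MCF-7 human ductal carcinoma breast cells were seeded at 3.75×10^4 cells per mL (40 μL per well) in 384 well plates with phenol red free DMEM containing 2 mM L-Glutamine and 5% (v/v) Charcoal/Dextran treated foetal calf serum. After overnight culture, compounds were acoustically dispensed, incubated 18-22 hours, then cells were formaldehyde-fixed and immunostained for ERα.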

Row | SMILES | ER degradation ≥ 90% at 0.3 μM | DC50 [nM]
1 | Cc1ncsc1-c1ccc(CNC(=O)[C@@H]2C[C@@H](O)CN2C(=O)[C@@H](NC(=O)COCCOCCCCCOc2cc(F)c([C@@H]3c4[nH]c5ccccc5c4C[C@@H](C)N3CC(F)F)c(F)c2)C(C)(C)C)cc1 [Example 167, (2S,4R)-1-((S)-2-(2-(2-((5-(4-((1R,3R)-2-(2,2-Difluoroethyl)-3-methyl-2,3,4,9-tetrahydro-1H-pyrido[3,4-b]indol-1-yl)-3,5-difluorophenoxy)pentyl)oxy)ethoxy)acetamido)-3,3-dimethylbutanoyl)-4-hydroxy-N-(4-(4-methylthiazol-5-yl)benzyl)pyrrolidine-2-carboxamide] | •• | 0.6
2 | Cc1ncsc1-c1ccc([C@@H](CN)NC(=O)[C@@H]2C[C@@H](O)CN2C(=O)[C@@H](NC(=O)COCCOCCOCCOc2cc(F)c([C@@H]3c4[nH]c5ccccc5c4C[C@@H](C)N3CC(C)(C)F)c(F)c2)C(C)(C)C)cc1 [Example 106, (2S,4R)—N-[(1S)-2-amino-1-[4-(4-methylthiazol-5-yl)phenyl]ethyl]-1-[(2S)-2-[[2-[2-[2-[2-[3,5-difluoro-4-[(1R,3R)-2-(2-fluoro-2-methyl-propyl)-3-methyl-1,3,4,9-tetrahydropyrido[3,4-b]indol-1-yl]phenoxy]ethoxy]ethoxy]ethoxy]acetyl]amino]-3,3-dimethyl-butanoyl]-4-hydroxy-pyrrolidine-2-carboxamide] | • | 0.9
3 | Cc1ncsc1-c1ccc(CNC(=O)[C@@H]2C[C@@H](O)CN2C(=O)[C@@H](NC(=O)C(F)(F)OCCCCCCOc2cc(F)c([C@@H]3c4[nH]c5ccccc5c4C[C@@H](C)N3CC(C)(C)F)c(F)c2)C(C)(C)C)cc1 [Example 116, (2S,4R)-1-((S)-2-(2-((6-(3,5-Difluoro-4-((1R,3R)-2-(2-fluoro-2-methylpropyl)-3-methyl-2,3,4,9-tetrahydro-1H-pyrido[3,4-b]indol-1-yl)phenoxy)hexyl)oxy)-2,2-difluoroacetamido)-3,3-dimethylbutanoyl)-4-hydroxy-N-(4-(4-methylthiazol-5-yl)benzyl)pyrrolidine-2-carboxamide] | • | 5.3
4 | CC(=O)O[C@@H]1C[C@@H](C(=O)NCc2ccc(-c3scnc3C)cc2)N(C(=O)[C@@H](NC(=O)COCCOCCOCCOc2cc(F)c([C@@H]3c4[nH]c5ccccc5c4C[C@@H](C)N3CC(C)(C)F)c(F)c2)C(C)(C)C)C1 [Example 34, (3R,5S)-1-((S)-2-(tert-Butyl)-14-(3,5-difluoro-4-((1R,3R)-2-(2-fluoro-2-methylpropyl)-3-methyl-2,3,4,9-tetrahydro-1H-pyrido[3,4-b]indol-1-yl)phenoxy)-4-oxo-6,9,12-trioxa-3-azatetradecanoyl)-5-((4-(4-methylthiazol-5-yl)benzyl)carbamoyl)pyrrolidin-3-yl Acetate] | • | 1
5 | Cc1ncsc1-c1ccc(CNC(=O)[C@@H]2C[C@@H](O)CN2C(=O)[C@@H](NC(=O)COCCCCCOCCOc2cc(F)c([C@@H]3c4[nH]c5ccccc5c4C[C@@H](C)N3CC(C)(C)F)c(F)c2)C(C)(C)C)cc1 [Example 9, (2S,4R)-1-((S)-2-(2-((5-(2-(3,5-Difluoro-4-((1R,3R)-2-(2-fluoro-2-methylpropyl)-3-methyl-2,3,4,9-tetrahydro-1H-pyrido[3,4-b]indol-1-yl)phenoxy)ethoxy)pentyl)oxy)acetamido)-3,3-dimethylbutanoyl)-4-hydroxy-N-(4-(4-methylthiazol-5-yl)benzyl)pyrrolidine-2-carboxamide] | •• | 0.7
6 | Cc1ncsc1-c1ccc(CNC(=O)[C@@H]2C[C@@H](O)CN2C(=O)[C@@H](NC(=O)COCCOCCCCCOc2cnc([C@@H]3c4[nH]c5ccccc5c4C[C@@H](C)N3CC(F)(F)F)c(F)c2)C(C)(C)C)cc1 [Example 165, (2S,4R)-1-((S)-2-(2-(2-((5-((5-Fluoro-6-((1S,3R)-3-methyl-2-(2,2,2-trifluoroethyl)-2,3,4,9-tetrahydro-1H-pyrido[3,4-b]indol-1-yl)pyridin-3-yl)oxy)pentyl)oxy)ethoxy)acetamido)-3,3-dimethylbutanoyl)-4-hydroxy-N-(4-(4-methylthiazol-5-yl)benzyl)pyrrolidine-2-carboxamide] | •• | 4.4
7 | COC(=O)[C@@H](C)CN1[C@H](c2c(F)cc(OCCOCCOCCOCC(=O)N[C@H](C(=O)N3C[C@H](O)C[C@H]3C(=O)NCc3ccc(-c4scnc4C)cc3)C(C)(C)C)cc2F)c2[nH]c3ccccc3c2C[C@H]1C [Example 29] | •• | 2.4
8 | Cc1ncsc1-c1ccc(CNC(=O)[C@@H]2C[C@@H](O)CN2C(=O)[C@@H](NC(=O)COCCCCCOCCOc2ccc([C@@H]3c4[nH]c5ccccc5c4C[C@@H](C)N3CC(F)F)nc2)C(C)(C)C)cc1 [Example 10, (2S,4R)-1-((S)-2-(2-((5-(2-((6-((1S,3R)-2-(2,2-Difluoroethyl)-3-methyl-2,3,4,9-tetrahydro-1H-pyrido[3,4-b]indol-1-yl)pyridin-3-yl)oxy)ethoxy)pentyl)oxy)acetamido)-3,3-dimethylbutanoyl)-4-hydroxy-N-(4-(4-methylthiazol-5-yl)benzyl)pyrrolidine-2-carboxamide] | •• | 12
9 | Cc1ncsc1-c1ccc(CNC(=O)[C@@H]2C[C@@H](O)CN2C(=O)[C@@H](NC(=O)CNCCC(F)(F)CCOc2cc(F)c([C@@H]3c4[nH]c5ccccc5c4C[C@@H](C)N3CC(C)(C)F)c(F)c2)C(C)(C)C)cc1 [Example 131, (2S,4R)-1-((S)-2-(2-((5-(3,5-Difluoro-4-((1R,3R)-2-(2-fluoro-2-methylpropyl)-3-methyl-2,3,4,9-tetrahydro-1H-pyrido[3,4-b]indol-1-yl)phenoxy)-3,3-difluoropentyl)amino)acetamido)-3,3-dimethylbutanoyl)-4-hydroxy-N-(4-(4-methylthiazol-5-yl)benzyl)pyrrolidine-2-carboxamide] | • | 0.8
10 | Cc1ncsc1-c1ccc([C@H](C)NC(=O)[C@@H]2C[C@@H](O)CN2C(=O)[C@@H](NC(=O)COCCCCCOc2cc(F)c([C@@H]3c4[nH]c5ccccc5c4C[C@@H](C)N3CC(C)(C)F)c(F)c2)C(C)(C)C)cc1 [Example 28, (2S,4R)-1-((S)-2-(2-((5-(3,5-Difluoro-4-((1R,3R)-2-(2-fluoro-2-methylpropyl)-3-methyl-2,3,4,9-tetrahydro-1H-pyrido[3,4-b]indol-1-yl)phenoxy)pentyl)oxy)acetamido)-3,3-dimethylbutanoyl)-4-hydroxy-N—((S)-1-(4-(4-methylthiazol-5-yl)phenyl)ethyl)pyrrolidine-2-carboxamide] | • | 0.8
11 | Cc1ncsc1-c1ccc(CNC(=O)[C@@H]2C[C@@H](O)CN2C(=O)[C@@H](NC(=O)COCCCCCN(CCOc2cc(F)c([C@@H]3c4[nH]c5ccccc5c4C[C@@H](C)N3CC(C)(C)F)c(F)c2)C(=O)OCc2ccccc2)C(C)(C)C)cc1 [Example 45, Benzyl (2-(3,5-difluoro-4-((1R,3R)-2-(2-fluoro-2-methylpropyl)-3-methyl-2,3,4,9-tetrahydro-1H-pyrido[3,4-b]indol-1-yl)phenoxy)ethyl)(5-(2-(((S)-1-((2S,4R)-4-hydroxy-2-((4-(4-methylthiazol-5-yl)benzyl)carbamoyl)pyrrolidin-1-yl)-3,3-dimethyl-1-oxobutan-2-yl)amino)-2-oxoethoxy)pentyl)carbamate] | •• | 12
